Legend:
IRAK4 [1] = molecular target: T1, IRAK4 (Homo sapiens (Human), UniProt Q9NWZ3); assay: Screening the compounds against IRAK4 with ATP (Caliper, FAM-labeled peptide); type: biochemical; conditions: for IC50: read-out: IC50 (nM) (10 μM ATP), IRAK4 kinase, 10 μM ATP
Method in brief: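 Reactions ran at 28° C after adding peptide and ATP, following a 10 min room-temperature enzyme-compound preincubation in HEPES pH 7.5/Brij-35 buffer; EDTA stop.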

IRAK4 [2] = molecular target: T1, IRAK4; assay: Kinase binding ability (KINOMEscan site-directed competition binding assay); conditions: for Kd: Kd between IRAK4 and compound
Protocol: The Equilibrium dissociation constant reflected the test compound's kinase binding (Kd). The KINOMEscan, a site-directed competition binding assay, was used to measure interactions between test compounds and specific kinases. The kinase-tagged T7 phage strains were derived from the BL21 strain's E. coli host. T7 phage was used to infect E. coli, which was then incubated until lysis occurred. The remaining kinases were produced in HEK-293 cells and tagged with DNA. To create affinity resins for kinase, streptavidin-coated magnetic beads were treated with biotinylated small molecule ligands. The assay consists of three components: a DNA-tagged kinase, an immobilized ligand, and the test compound. An immobilized ligand could compete with the compound binding the kinase active site. The affinity beads were washed with wash buffer and re-suspended in elution buffer following reactions in a polypropylene 384-well plate. qPCR of the kinase-DNA tag was used to assess the test compound's ability to bind with the selected kinase. The assay was carried out in accordance with the manufacturer's instructions (Eurofins DiscoverX Corporation).
Binding constants (Kd) were calculated with a standard dose-response curve using the Hill equation: […]

[3] = Metabolic stability in human liver microsomes; type: in vitro ADME; conditions: for half-life: NADPH, 37° C., read-out: Human microsome (t1/2)
Protocol: (§1) The appropriate concentrations of microsomes working solutions (0.56 mg/mL) were prepared in potassium phosphate buffer. The test compounds were incubated with Human, SD Rat, CD-1 Mouse and Beagle Dog liver microsomes for 10 min at 37° C. with constant shaking. The reaction was initiated by the addition of nicotinamide adenine dinucleotide phosphate (NADPH) cofactor after a 10 min pre-incubation. At 5, 15, 30, 45, and 60 min, the samples were taken and placed into the stop solution (Cold acetonitrile containing 200 ng/mL tolbutamide and 200 ng/mL labetalol as internal standards). All sampling plates were shaken for 10 min, then centrifuged at 4000 rpm for 20 minutes at 4° C. Each supernatant of bioanalysis plate was sealed and shaken for 10 minutes prior to LC-MS analysis.

[4] = Metabolic stability in rat liver microsomes; type: in vitro ADME, SD Rat; conditions: for half-life: SD rat liver microsomes, NADPH, 37° C., read-out: Rat microsome (t1/2)
Protocol: as §1

[5] = Metabolic stability in mouse liver microsomes; type: in vitro ADME, CD-1 Mouse; conditions: for half-life: CD-1 mouse liver microsomes, NADPH, 37° C., read-out: Mouse microsome (t1/2)
Protocol: as §1

[6] = Metabolic stability in dog liver microsomes; type: in vitro ADME, Beagle Dog; conditions: for half-life: Beagle dog liver microsomes, NADPH, 37° C., read-out: Dog microsome (t1/2)
Protocol: as §1

[7] = Pharmacokinetics study in ICR mice; type: in vivo; conditions: for clearance rate (in words) / half-life (in words) / oral absorption (in words) / oral exposure and bioavailability (in words): mice; for clearance rate (in words) / half-life (in words): administered intravenously; for oral absorption (in words) / oral exposure and bioavailability (in words): oral administration; for Vd / clearance / half-life / AUC / bioavailability / Cmax / Tmax: mouse, plasma, male ICR mice; for AUC: zero to 24 hours; for bioavailability: oral, p.o.: 10 mg/kg vs i.v.: 2 mg/kg
Protocol: Solution used:10% DMSO+10% Solutol+80% (20% Hp-β-CD)
Single dose pharmacokinetic parameters were determined at Medicilon using male ICR mice (3 […] per group, 2 groups). Groups were dosed i.v. (2 mg/kg) or p.o. (10 mg/kg) and blood samples were taken via submandibular or saphenous vein at the following time points post dosing: 0.083 (i.v. only), 0.25, 0.5, 1, 2, 4, 6 (p.o. only), 8 and 24 h. An aliquot of 50 μL of blood plasma was protein precipitated with 250 μL internal standard solution (200 ng/mL tolbutamide in MeOH), the mixture was vortex-mixed for 1 min and centrifuged at 14,000 rpm for 5 min. The concentration of the test compound in the plasma samples was determined using LC-MS/MS with the peak areas compared to a calibration curve determined using 5-5000 ng/mL test compound in ICR mice plasma. […] Cmax represents peak plasma concentration of the drug; Tmax represents the time to reach Cmax; T1/2 represents elimination half-life or the time taken for Cmax to drop in half; Cl represents clearance; Vd represents apparent volume of distribution; F represents bioavailability; p.o. represents oral administration; and i.v. represents intravenous injection.

T1 sequence (Q9NWZ3 whole entry): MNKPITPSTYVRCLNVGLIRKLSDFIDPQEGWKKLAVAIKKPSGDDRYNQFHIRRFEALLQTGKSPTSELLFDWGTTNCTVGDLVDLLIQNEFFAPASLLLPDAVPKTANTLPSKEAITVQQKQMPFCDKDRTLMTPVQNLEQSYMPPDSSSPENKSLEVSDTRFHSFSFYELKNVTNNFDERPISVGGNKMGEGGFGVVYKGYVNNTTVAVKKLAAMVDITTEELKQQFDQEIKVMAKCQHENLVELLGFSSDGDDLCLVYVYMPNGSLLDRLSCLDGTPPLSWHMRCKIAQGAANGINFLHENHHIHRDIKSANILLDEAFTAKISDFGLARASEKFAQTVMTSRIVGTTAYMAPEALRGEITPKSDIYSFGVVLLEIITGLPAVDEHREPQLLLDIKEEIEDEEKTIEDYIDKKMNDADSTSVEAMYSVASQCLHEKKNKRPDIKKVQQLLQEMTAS

SMILES	IC50 (IRAK4 [1]) [nM]	binding affinities to IRAK4 (in words) (IRAK4 [2])	Kd (IRAK4 [2]) [nM]	metabolic stability in liver microsomes of human (in words) [3]	half-life [3] [h]	half-life [4] [h]	metabolic stability in liver microsomes of rat (in words) [4]	half-life [5] [h]	metabolic stability in liver microsomes of mouse (in words) [5]	half-life [6] [h]	metabolic stability in liver microsomes of dog (in words) [6]	clearance rate (in words) [7]	half-life (in words) [7]	oral absorption (in words) [7]	oral exposure and bioavailability (in words) [7]	Vd ([7]; iv, i.v.: 2 mg/kg) [L/kg]	clearance ([7]; iv, i.v.: 2 mg/kg) [mL/min/kg]	half-life ([7]; iv, i.v.: 2 mg/kg) [h]	AUC ([7]; iv, i.v.: 2 mg/kg) [ng·h/mL]	bioavailability [7] [%]	also measured
Cn1cc(-c2cccc(NC(=O)c3cc4oc(N5CCOCC5)nc4nc3N3CCC(O)CC3)n2)cn1 [Compound A4, 5-(4-hydroxypiperidin-1-yl)-N-(6-(1-methyl-1H-pyrazol-4-yl)pyridin-2-yl)-2-morpholinooxazolo[4,5-b]pyridine-6-carboxamide]	11	high binding affinities	0.59	good metabolic stability	> 2.42	1.53	good metabolic stability	> 2.42	good metabolic stability	1.7	good metabolic stability	low clearance rate	good half-life	well absorbed orally	extremely high oral exposure and bioavailability	0.98	8.1	1.4	4050	130	activity, times better than that of the positive control compound CA4948 (IRAK4 [1]; IRAK4 kinase inhibition relative to CA4948): more than 10 times; Cmax ([7]; po, p.o.: 10 mg/kg): 8580 ng/mL; Tmax ([7]; po, p.o.: 10 mg/kg): 1.17 h; AUC ([7]; po, p.o.: 10 mg/kg): 26400 ng·h/mL
Cn1cc(-c2cccc(NC(=O)c3cc4c(nc3N3CCC(O)CC3)OC(C)(C)C4)n2)cn1 [Compound B5, 6-(4-Hydroxypiperidin-1-yl)-2,2-dimethyl-N-(6-(1-methyl-1H-pyrazol-4-yl)pyridin-2-yl)-2,3-dihydrofuro[2,3-b]pyridine-5-carboxamide]	7.6	high binding affinities	0.69	good metabolic stability	> 2.42	> 2.42	good metabolic stability	1.18	moderate metabolic stability	> 2.42	good metabolic stability	low clearance rate	good half-life	well absorbed orally	extremely high oral exposure and bioavailability	3.6	13.6	3.1	2450	91	Cmax ([7]; po, p.o.: 10 mg/kg): 1460 ng/mL; Tmax ([7]; po, p.o.: 10 mg/kg): 2 h; AUC ([7]; po, p.o.: 10 mg/kg): 9990 ng·h/mL
